Format in all cases: cell-based
The subject of one data set is MCF-7 cells. The data set is described as follows: Cell death estimation, cycloheximide-exposed MCF-7 cells (trypan blue). The settings on record: for Percent dead cells: 48 hours. As for the experimental part:
Subconfluent cultures of MCF-7 cells in 35 mm dishes, were deprived of serum for 20 hours and then exposed to 30 μg/ml cycloheximide in the presence or absence of increasing concentrations of fractionated ATA, crude ATA or EB. After 48 hours, the cells were detached with trypsin. The medium and the detached cells were pooled and centrifuged at 1000×g for 10 mins. Cell viability was estimated by adding an equivalent volume of trypan blue solution to an aliquot of suspended cells. Stained and unstained cells were counted on a hemocytometer (10^3 cells were counted for each determination).
Subconfluent, 20 hours starved MCF-7 cells were exposed to 30 μg/ml
of cycloheximide in the presence of increasing
concentrations of fractionated ATA (0, 6, 12, 25, 50 μg/ml). After
48 hours, percent of dead cells was
determined as described under "Experimental procedures". In the
presence of cycloheximide only, 60-70% of
the cells were dead after 48 hours.
Cultures of […] cells were exposed to 30 μg CX for 48 hours in the presence of EB, ATA, IGF-1, or nothing.

In data set [1] the test system is MAPK-1 (44 kDa) and MAPK-2 (42 kDa). The data set is described as follows: Activation of MAPKs in MCF-7 cells (anti-active MAPK immunoblot). The settings on record: 5 mins., ATA, EB each at 300 μg/ml, IGF-1 20 or 40 ng/ml. The method, then: FIG. 7 is the effect of ATA and EB on activation of MAPKs: MCF-7 cells were treated for 5 mins. with ATA, EB, each at 300 μg/ml, 20 ng/ml or 40 ng/ml IGF-1. Cell lysates, solubilized in Buffer C, were subjected to 12% SDS-PAGE and immunoblotted with an anti-active MAPK antibody. The membrane, after ECL detection, was stripped of bound antibody and blotted with an anti-MAPK antibody.
(§1) Nitrocellulose blots of proteins were incubated with the antibodies, and proteins were detected by enhanced chemiluminescence using horseradish peroxidase-labeled protein A, horseradish peroxidase-labeled anti rabbit IgG or horseradish peroxidase-labeled anti-mouse IgG.
The activated forms of MAPKs were detected by anti-active MAPK immunoblotting in the MCF-7 cell's lysates. […] Blotting with anti MAPKs antibodies confirms that similar amounts of MAPKs were present in treated and non-treated cells.
(In western blotting, separated proteins are transferred to a membrane and probed.)

A further data set concerns the target T1, IR (Rattus norvegicus, UniProt P15127).
T1 construct: determined in the rat hepatoma cell line FaO; endogenous in cells; host or cells: FaO (rat hepatoma)
The data set is described as follows: Tyrosine phosphorylation of IR in FaO cells. The settings on record: 3 hour preincubation with vanadate, 5 min. incubations with EB and insulin. As for the experimental part:
FIG. 9 is the tyrosine phosphorylation of the IR cascade in Fao cells: A--Immunoblot analysis: Fao cells were deprived of serum for 20 hours, then incubated with EB, ATA, at 200 μg/ml or insulin at 600 ng/ml for 5 mins. Cell extracts were subjected to immunoprecipitation with antibodies to: IR β-subunit (αIR), IRS-1 (αIRS-1) and to IRS-2 (αIRS-2). The immunoprecipitates and total cell extracts were analyzed by SDS-PAGE. Proteins were transferred to nitrocellulose papers, and phosphotyrosine containing proteins were probed with anti-phosphotyrosine antibodies (αP-Tyr), antibody to the 85-kDa subunit of PI3-kinase (αp85) and antibodies to active MAPK (α active MAPK). The immunoblots were visualized by ECL (Amersham).
B--Kinetics of IR phosphorylation: Cells were treated either with 200 μg/ml EB for the indicated times (top panel) or with the indicated concentrations of EB for 5 mins. (middle panel). A 3 hour preincubation with vanadate preceded the 5 min. incubations with EB and insulin (bottom panel).
(§2) MCF-7 cells were grown in 35 or 100 mm dishes in DMEM with 5% bovine fetal serum. Rat hepato FaO cells were grown in RPMI 1640 medium supplemented with 10% fetal calf serum. Subconfluent monolayers of MCF-7 cells or FaO cells, were deprived of serum for 20 hours prior to each experiment. The medium was removed, and cells were incubated at 37° C. under the conditions as indicated for each experiment. The reaction was terminated by removing the medium and freezing the monolayers with liquid nitrogen. In some experiments, cells were preincubated with 50 μM sodium orthovanadate for 3 hours.
(§3) Cells were solubilized in Buffer A or C. Extracts were immunoprecipitated at 4° C. with antibodies to IRS-1, IRS-2, IGF-1 or IR receptor or Grb2, adsorbed on protein A-Sepharose beads. The immunocomplexes were pelleted by centrifugation at 12,000×g and washed twice with Buffer A, and twice with Buffer A containing 0.1% Triton x-100. The pellets were then suspended in Laemmli sample buffer and resolved on 7.5% SDS-PAGE.
as §1
The ability of EB and ATA to phosphorylate the IR was determined in the rat hepatoma cell line FaO. […] Phosphorylation is maximal after a 1 min. exposure to 70 μg/ml of EB (FIG. 9B, top and middle panels).

Data set [2] concerns 185 kDa protein(s) (p185). The data set is described as follows: Tyrosine phosphorylation of p185 in MCF-7 cells (anti-phosphotyrosine immunoblot). As for the experimental part: FIG. 1 is the effect of ATA and EB on tyrosine phosphorylation: MCF-7 cells, grown in 35 mm dishes were solubilized in Buffer A (a) or Buffer B (b-c). The solubilized cells were subjected to 7.5% SDS-PAGE and immunoblotted with an anti-phosphotyrosine antibody. (a) Cells treated for 5 mins. with ATA, EB, each at 300 μg/ml, IGF-1 at 20 ng/ml, or without additives (CON); (b) Cells treated with 300 μg/ml ATA for the indicated times; (c) Cells treated with 30 μg/ml EB for the indicated times; (d) Cells treated for 5 mins. with the indicated concentrations of ATA; (e) Cells treated for 5 mins. with the indicated concentrations of EB. Molecular mass markers (in kDa) are indicated on the right.
FIG. 2 is the effect of ATA and vanadate on the IGF-1 stimulated tyrosine phosphorylation of p185: A--Cells treated for 5 mins. with the indicated concentrations of IGF-1 in the presence or absence of 300 μg/ml ATA; B--Cells pre-incubated for 3 hours with or without 50 μM vanadate were incubated for 5 mins. with ATA, EB each at 300 μg/ml or with 10 ng/ml IGF-1 in the presence or absence of vanadate. Cytosols extracted in Buffer B were analyzed by immunoblotting with anti-phosphotyrosine antibody as in FIG. 1.
FIG. 8 is the effect of fractionated ATA on p185 phosphorylation: A--Crude ATA was separated on a Bio-Rad P-4 column and the combined void volume was then gel filtrated on a column of Bio-Rad P-10. The column was calibrated with the following molecular weight markers: DB-Dextran blue; CC-cytochrome C: Ins-insulin; B12-Vitamin B12. B--MCF-7 cells were incubated for 5 mins. with the indicated fractions of ATA (eluted from the P-10 column shown in A), crude ATA, each at 200 μg/ml or IGF-1 at 20 ng/ml. Cytosols, solubilized in Buffer B were subjected to 7.5% SDS-PAGE and immunoblotted with phosphotyrosine antibody.
as §2
Cells were solubilized at 4° C. with 0.2 ml/35 mm dish or 2 ml/100 mm dish of the indicated buffer. The solubilized cells were scraped and sedimented by centrifugation at 12,000×g for 30 mins. at 4° C. Aliquots of the supernatants were normalized for protein, mixed with concentrated (5×) Laemmli sample buffer, boiled for 10 mins. and resolved on 7.5 or 12% SDS-PAGE under reducing conditions.
as §1

Another data set deals with IRS-1. The data set is described as follows: IRS-1 tyrosine phosphorylation and association with p85/Grb2 in MCF-7 cells. The settings on record: 5 mins., ATA or EB 300 μg/ml, IGF-1 20 ng/ml. As for the experimental part:
FIG. 3 is the effect of ATA and EB on tyrosine phosphorylation or IRS-1: MCF-7 cells grown in 100 mm dishes, were treated with ATA or EB, each at 300 μg/ml, or 20 ng/ml IGF-1 for 5 mins. Total cell extracts, solubilized in Buffer A, were subjected to immunoprecipitation with antibodies to IRS-1 (a) or Grb2 (b). The immunocomplexes, precipitated with protein G-Sepharose beads, were subjected to 7.5% SDS-PAGE followed by immunoblotting with a phosphotyrosine antibody, an antibody to the 85-kDa subunit of PI3-kinase or antibody to IRS-1.
as §3, §1
(§4) MCF-7 cells were stimulated with ATA, EB or IGF-1, solubilized and immunoprecipitated with anti IRS-1 or IRS-2 antibodies, separated by SDS-PAGE and immunoblotted with anti-phosphotyrosine antibody. […] The association of IRS-1 with Grb-2 was evaluated in lysates from treated cells which were immunoblotted with antibodies to either phosphotyrosine or IRS-1.

The next data set has as its system IRS-2. Description: IRS-2 association with p85 of PI3-kinase in MCF-7 cells. The settings on record: 5 mins., ATA or EB 300 μg/ml, IGF-1 20 ng/ml. As for the experimental part: FIG. 4 is the effect of ATA and EB on tyrosine phosphorylation of IRS-2: MCF-7 cells were treated as in FIG. 3. Total cell extracts, solubilized in Buffer C, were immunoprecipitated with an antibody to IRS-2. The immunocomplexes, precipitated with protein A-Sepharose beads were subjected to 7.5% SDS-PAGE, followed by immunoblotting with a phosphotyrosine antibody and an antibody to the 85-kDA subunit of PI3-kinase.
as §3, §1, §4

T1 sequence (P15127 764-1383 limits assumed): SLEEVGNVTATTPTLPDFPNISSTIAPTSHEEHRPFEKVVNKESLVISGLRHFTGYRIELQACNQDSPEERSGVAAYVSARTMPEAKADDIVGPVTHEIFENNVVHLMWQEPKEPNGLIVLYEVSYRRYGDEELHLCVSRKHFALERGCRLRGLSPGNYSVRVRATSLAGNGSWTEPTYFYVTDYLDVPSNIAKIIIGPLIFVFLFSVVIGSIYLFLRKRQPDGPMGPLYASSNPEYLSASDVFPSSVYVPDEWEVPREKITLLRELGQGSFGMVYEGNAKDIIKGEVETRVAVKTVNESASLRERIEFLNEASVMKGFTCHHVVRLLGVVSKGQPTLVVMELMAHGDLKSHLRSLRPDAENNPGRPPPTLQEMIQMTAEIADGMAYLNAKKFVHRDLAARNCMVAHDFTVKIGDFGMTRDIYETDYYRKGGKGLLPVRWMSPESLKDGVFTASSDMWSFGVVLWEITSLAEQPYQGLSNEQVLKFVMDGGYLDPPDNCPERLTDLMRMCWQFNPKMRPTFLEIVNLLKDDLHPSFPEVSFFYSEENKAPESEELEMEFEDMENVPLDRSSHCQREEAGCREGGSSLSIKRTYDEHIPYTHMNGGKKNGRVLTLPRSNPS
T1 sequence (P15127 27-759 limits assumed): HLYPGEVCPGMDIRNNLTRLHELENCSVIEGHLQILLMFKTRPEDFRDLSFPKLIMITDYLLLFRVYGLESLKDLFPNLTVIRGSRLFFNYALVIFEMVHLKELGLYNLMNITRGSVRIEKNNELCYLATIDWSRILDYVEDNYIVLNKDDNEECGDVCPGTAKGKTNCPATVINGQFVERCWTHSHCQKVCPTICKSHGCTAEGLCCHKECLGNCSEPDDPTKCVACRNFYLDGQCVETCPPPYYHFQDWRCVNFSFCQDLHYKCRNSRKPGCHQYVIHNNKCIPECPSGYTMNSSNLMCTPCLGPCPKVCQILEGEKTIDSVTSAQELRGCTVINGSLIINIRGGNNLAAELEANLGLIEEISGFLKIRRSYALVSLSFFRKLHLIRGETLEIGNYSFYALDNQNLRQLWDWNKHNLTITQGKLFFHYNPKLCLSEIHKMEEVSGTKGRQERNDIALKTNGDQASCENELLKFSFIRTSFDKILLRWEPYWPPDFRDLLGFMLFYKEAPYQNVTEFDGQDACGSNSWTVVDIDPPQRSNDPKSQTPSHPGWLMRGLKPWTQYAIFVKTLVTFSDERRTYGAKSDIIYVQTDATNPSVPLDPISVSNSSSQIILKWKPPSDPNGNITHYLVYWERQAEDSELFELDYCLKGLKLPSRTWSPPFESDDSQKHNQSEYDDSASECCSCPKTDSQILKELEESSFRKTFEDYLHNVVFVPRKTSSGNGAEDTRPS

Regarding `C[C@@H]1C[C@@H]([C@H](O)CC2CC(=O)NC(=O)C2)C(=O)[C@@H](C)C1` [CX, cycloheximide, reference compound], the Percent dead cells with MCF-7 cells (CX only, 30 μg, Control without CX 10 ± 3) is reported as 56 ± 5%. Further, the cytotoxicity at 30 µg/mL with MCF-7 cells (Homo sapiens, MCF7, 48 h, read-out: cells dead after 48 hours) was 60 to 70%.
Regarding `CCCCCCCCCCCCCC(=O)O[C@@H]1[C@@H](C)[C@@]2(O)[C@@H](C=C(CO)C[C@]3(O)C(=O)C(C)=C[C@@H]23)[C@@H]2C(C)(C)[C@]12OC(C)=O` [TPA, reference compound], in data set [1], the “Phosphorylated (active) isoforms MAPK-1 and MAPK-2” value was “clearly detected”.
On to `[Na+].[Na+].[Na+].[O]=[V]([O-])([O-])[O-]` [Vanadate, sodium orthovanadate, reference compound], for which, on IR, the “Effect on IR phosphorylation induced by insulin” value is “enhances”. The “Effect on phosphorylation of p185 induced by IGF-1, ATA and EB” value in data set [2] (MCF-7 cells pre-incubated 3 hours with 50 μM vanadate) is recorded as “markedly enhanced”.
For “IGF-1: Recombinant human IGF-1 from Boehringer Mannheim”, the “Phosphorylated (active) isoforms MAPK-1 and MAPK-2” value in data set [1] is recorded as “clearly detected”. Besides, the Percent dead cells in the data set on MCF-7 cells (30 μg CX, IGF-1 20 μg/ml) is 15 ± 4%. Further, in the data set on IRS-1, the “Association of IRS-1 with Grb-2” value was “IRS-1 co-precipitated with Grb2”, the “Association of p85 subunit of PI3-k with IRS-1” value was “p85 precipitates with IRS-1” and the “Phosphorylation of IRS-1” value is reported as “stimulated the phosphorylation of IRS-1”. Also, the “Tyrosine phosphorylation of a 185 kDa protein(s)” value in data set [2] (MCF-7 cells, 5 mins., ATA, EB each at 300 μg/ml, IGF-1 at 20 ng/ml) was “enhanced tyrosine phosphorylation of a 185 kDa protein(s)”. Further, the “pp185 (arbitrary units)” value in data set [2] (MCF-7 cells, 5 mins., IGF-1 at 20 ng/ml, scanned autoradiogram from FIG. 8B, Control 100) was 1,751 arbitrary units. The “Association of p85 subunit of PI3-k with IRS-2” value with IRS-2 is recorded as “p85 precipitates”.
